# Measurements published in ChEMBL document CHEMBL1201862, “PubChem BioAssay data set” (2004).
# The source made the active and inactive calls.
# What was measured:
# HeLa = assay: Cytotoxicity counterscreen assay for transcriptional activators of heat shock protein 70 (Hsp70). [Related pubchem assays: 1203, 1252 ]; assay type: functional; details: Homo sapiens;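 also: cells exposed to compound for 16 hours before readout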
# [1] = target: G2/mitotic-specific cyclin-B1 (Homo sapiens, UniProt P14635); assay: Counterscreen assay for inhibitors of Wee1 degradation: dose response cell-based assay to identify inhibitors of cyclin B degradation. [Related pubchem assays: 1410, 1321 ]; assay type: functional
# Wee1-like protein kinase = Wee1-like protein kinase (Homo sapiens, UniProt P30291); assay: Dose Response Cell-based Assay for Inhibitors of Wee1 Degradation. [Related pubchem assays: 1410, 1321 ]; assay type: functional
# Chain of Wee1-like protein kinase (P30291 whole entry): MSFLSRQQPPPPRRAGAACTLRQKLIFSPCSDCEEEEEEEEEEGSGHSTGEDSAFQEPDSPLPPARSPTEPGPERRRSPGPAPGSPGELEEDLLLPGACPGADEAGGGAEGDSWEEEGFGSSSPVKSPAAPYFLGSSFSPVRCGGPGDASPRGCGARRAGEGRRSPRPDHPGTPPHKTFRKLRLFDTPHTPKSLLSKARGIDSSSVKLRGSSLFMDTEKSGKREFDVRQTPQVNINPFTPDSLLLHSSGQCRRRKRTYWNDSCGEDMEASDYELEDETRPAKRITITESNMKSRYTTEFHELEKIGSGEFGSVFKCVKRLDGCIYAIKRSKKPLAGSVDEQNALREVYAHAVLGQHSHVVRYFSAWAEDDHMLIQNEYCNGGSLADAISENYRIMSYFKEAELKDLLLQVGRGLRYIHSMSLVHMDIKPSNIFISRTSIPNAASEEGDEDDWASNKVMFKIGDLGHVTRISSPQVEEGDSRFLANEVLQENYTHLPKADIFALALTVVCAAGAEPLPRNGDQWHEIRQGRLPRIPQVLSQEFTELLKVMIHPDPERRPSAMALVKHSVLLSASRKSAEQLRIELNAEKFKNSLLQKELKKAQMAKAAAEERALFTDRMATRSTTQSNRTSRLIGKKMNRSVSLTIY
# [2] = target: Mitogen-activated protein kinase 10 (Homo sapiens, UniProt P53779); assay: Dose response biochemical screening assay for inhibitors of c-Jun N-Terminal Kinase 3 (JNK3). [Related pubchem assays: 746 ]
# Chain of Mitogen-activated protein kinase 10 (P53779 whole entry): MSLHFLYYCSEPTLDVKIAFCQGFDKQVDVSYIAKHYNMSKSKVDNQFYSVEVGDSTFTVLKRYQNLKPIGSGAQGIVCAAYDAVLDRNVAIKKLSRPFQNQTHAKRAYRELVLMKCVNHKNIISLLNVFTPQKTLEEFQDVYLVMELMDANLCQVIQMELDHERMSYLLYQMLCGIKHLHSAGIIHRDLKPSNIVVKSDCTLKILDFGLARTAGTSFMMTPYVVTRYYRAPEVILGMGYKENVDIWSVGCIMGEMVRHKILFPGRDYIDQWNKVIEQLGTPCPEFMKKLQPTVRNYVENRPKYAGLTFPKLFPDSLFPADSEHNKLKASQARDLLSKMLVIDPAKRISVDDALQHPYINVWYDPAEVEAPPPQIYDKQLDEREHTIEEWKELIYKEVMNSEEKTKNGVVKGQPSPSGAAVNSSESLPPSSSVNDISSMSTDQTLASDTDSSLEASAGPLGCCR
# Jurkat = assay: blockers of NF-kB activation in T cells – Jurkat, luciferase reporter, luminescence, B- and T-cell, dose response (AID 489004); assay type: functional, cell-based; details: Homo sapiens;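 also: NF-kB luciferase reporter Jurkat cells stimulated with PMA plus ionomycin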
# [3] = HEK-293T viability loss, compound-treated – cell-based, uHTS hits, cytotoxicity control for B/T-cell NF-kB inhibitor project, dose response (AID 489019); assay type: functional;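 also: IC50 reflects cytotoxicity as loss of cell viability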
# Mucolipin-3 [4] = target: T1, Mucolipin-3 (Homo sapiens, UniProt Q8TDD5); assay: Dose response cell-based high-throughput screening assay for agonists of the transient receptor potential channel ML3 (TRPML3). [Related pubchem assays: 1526, 1424, 1448 ]; assay type: functional
# T1 sequence (Q8TDD5 whole entry): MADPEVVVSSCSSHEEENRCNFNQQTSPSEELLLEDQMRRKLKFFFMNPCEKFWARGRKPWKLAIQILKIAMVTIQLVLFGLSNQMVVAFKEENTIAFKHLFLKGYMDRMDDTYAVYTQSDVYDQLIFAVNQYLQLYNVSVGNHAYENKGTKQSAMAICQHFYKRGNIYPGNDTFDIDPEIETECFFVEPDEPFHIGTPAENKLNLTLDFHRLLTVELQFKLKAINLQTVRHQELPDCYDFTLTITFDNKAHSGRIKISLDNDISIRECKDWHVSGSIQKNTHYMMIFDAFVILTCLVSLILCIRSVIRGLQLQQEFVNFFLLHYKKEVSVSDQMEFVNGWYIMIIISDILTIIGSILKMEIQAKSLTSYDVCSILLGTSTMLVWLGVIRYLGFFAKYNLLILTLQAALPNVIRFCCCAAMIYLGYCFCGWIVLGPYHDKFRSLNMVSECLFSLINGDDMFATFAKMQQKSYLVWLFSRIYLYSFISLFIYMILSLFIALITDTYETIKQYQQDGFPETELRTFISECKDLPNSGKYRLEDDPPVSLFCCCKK
# Ion channel NompC [5] = target: T2, Ion channel NompC (Danio rerio, UniProt Q7T1G6); assay: Fluorescence counterscreen assay for TRPML3 agonists: dose response cell-based high-throughput screening assay to identify agonists of the transient receptor potential channel N1 (TRPN1). [Related pubchem assays: 1526, 1424, 1448 ]; assay type: functional
# T2 sequence (Q7T1G6 whole entry): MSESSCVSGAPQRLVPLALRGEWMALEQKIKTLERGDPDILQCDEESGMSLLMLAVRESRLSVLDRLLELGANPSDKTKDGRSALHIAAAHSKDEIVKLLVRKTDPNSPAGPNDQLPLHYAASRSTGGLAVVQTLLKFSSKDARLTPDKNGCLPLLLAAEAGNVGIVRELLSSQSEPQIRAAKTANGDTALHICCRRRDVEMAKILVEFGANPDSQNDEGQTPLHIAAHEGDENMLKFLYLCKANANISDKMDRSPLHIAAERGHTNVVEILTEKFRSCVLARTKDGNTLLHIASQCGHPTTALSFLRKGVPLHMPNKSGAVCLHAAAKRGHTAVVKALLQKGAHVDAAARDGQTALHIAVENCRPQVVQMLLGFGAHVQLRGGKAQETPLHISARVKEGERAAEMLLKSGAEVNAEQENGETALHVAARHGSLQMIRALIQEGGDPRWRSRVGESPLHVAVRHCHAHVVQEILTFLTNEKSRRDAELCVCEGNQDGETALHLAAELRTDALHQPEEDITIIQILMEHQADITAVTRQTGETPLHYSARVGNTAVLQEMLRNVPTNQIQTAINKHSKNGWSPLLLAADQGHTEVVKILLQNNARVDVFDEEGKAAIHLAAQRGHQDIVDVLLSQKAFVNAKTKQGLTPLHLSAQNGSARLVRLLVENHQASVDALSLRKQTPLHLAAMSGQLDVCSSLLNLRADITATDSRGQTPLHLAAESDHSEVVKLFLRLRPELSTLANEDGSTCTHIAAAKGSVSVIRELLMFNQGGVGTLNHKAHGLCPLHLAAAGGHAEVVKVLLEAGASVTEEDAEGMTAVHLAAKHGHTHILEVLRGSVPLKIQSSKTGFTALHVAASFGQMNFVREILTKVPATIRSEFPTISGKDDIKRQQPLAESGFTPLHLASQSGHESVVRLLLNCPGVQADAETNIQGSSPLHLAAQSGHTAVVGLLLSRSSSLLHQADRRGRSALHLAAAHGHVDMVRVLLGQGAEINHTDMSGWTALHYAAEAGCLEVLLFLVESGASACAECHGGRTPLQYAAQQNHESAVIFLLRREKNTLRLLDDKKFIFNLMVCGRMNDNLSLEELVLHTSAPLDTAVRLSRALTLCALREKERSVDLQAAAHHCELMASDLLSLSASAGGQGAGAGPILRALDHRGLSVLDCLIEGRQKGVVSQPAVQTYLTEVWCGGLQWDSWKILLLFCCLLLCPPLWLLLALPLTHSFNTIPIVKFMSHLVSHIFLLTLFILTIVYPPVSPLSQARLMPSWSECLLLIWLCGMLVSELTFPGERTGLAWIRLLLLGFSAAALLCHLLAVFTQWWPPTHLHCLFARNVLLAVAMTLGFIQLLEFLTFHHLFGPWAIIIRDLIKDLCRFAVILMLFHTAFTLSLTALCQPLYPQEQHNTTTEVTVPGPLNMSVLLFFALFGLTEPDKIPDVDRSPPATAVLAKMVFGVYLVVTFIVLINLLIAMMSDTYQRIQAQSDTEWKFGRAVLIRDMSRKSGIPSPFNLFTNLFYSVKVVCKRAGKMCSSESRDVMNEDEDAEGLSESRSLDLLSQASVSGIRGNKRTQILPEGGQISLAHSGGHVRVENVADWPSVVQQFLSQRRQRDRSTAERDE
# Mucolipin-3 [6] = target: T1, Mucolipin-3; assay: activators of mucolipin-3 and mucolipin-2 – cell-based, patch clamp, Fura-2 profiling panel, panel member TRPML3 Dose Response (AID 2116)
# Ion channel NompC [7] = target: T2, Ion channel NompC; assay: activators of mucolipin-3 and mucolipin-2 – cell-based, […], Fura-2 profiling panel, panel member TRPN1 Dose Response (AID 2116)
# Leucine aminopeptidase = target: T3, Leucine aminopeptidase (Plasmodium falciparum 3D7, UniProt Q8IL11); assay: P. falciparum M17LAP inhibitors, primary screen, biochemical, fluorogenic H-Leu-NHMec substrate, 1536-well (AID 1619); assay type: functional
# T3 sequence (Q8IL11 whole entry): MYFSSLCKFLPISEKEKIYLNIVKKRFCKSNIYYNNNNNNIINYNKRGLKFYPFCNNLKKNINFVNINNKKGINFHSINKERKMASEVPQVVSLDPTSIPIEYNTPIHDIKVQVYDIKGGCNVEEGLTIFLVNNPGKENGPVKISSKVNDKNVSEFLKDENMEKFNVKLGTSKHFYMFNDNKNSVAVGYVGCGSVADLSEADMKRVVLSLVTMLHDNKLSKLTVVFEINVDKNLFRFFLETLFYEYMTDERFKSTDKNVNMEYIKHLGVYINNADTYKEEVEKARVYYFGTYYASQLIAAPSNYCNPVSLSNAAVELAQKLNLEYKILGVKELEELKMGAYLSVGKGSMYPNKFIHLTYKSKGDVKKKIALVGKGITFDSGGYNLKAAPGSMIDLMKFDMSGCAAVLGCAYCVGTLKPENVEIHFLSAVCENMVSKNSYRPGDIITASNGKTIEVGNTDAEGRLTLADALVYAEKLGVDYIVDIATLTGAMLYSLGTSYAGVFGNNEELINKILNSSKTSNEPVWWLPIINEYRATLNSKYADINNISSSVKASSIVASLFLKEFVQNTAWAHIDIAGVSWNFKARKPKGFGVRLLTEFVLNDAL
# [8] = Counterscreen for IDE inhibitors: Luminescence-based cell-based high throughput dose response assay to identify compounds that are cytotoxic to HEK cells. [Related pubchem assays: 434962 (Primary screen (IDE inhibitors in singlicate)), 449730 (Counterscreen (Cytotoxicity in triplicate)), 435028 (Confirmation (IDE inhibitors in triplicate)) …; assay type: functional; details: HEK293
# Insulin-degrading enzyme = Insulin-degrading enzyme (Homo sapiens, UniProt P14735); assay: Dose Response: Fluorescence polarization-based cell-based high throughput dose response assay for inhibitors of insulin-degrading enzyme (IDE). [Related pubchem assays: 434962 (Primary screen (IDE inhibitors in singlicate)), 449730 (Counterscreen (Cytotoxicity in triplicate)), 435028 (Confirmation (IDE inhibitors in triplicate)), 434984 (Summary …; assay type: functional
# Aspartyl aminopeptidase = Aspartyl aminopeptidase (Plasmodium falciparum 3D7, UniProt Q8I2J3)
# Procathepsin L = Procathepsin L (Homo sapiens, UniProt P07711)
# Chain of Procathepsin L (P07711 whole entry): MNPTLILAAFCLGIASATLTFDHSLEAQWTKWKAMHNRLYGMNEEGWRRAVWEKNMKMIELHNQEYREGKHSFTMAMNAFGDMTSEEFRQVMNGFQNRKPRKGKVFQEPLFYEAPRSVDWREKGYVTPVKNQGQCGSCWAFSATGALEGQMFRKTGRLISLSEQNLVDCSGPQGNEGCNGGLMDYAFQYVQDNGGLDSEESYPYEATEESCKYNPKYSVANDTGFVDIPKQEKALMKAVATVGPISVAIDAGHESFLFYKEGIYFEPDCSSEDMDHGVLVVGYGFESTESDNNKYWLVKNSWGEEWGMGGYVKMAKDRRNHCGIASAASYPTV
# Large T antigen = Large T antigen (Simian virus 40, UniProt P03070); assay type: functional, Betapolyomavirus macacae;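 also: Confirmatory-stage PubChem screen for compounds that inhibit SV40 T antigen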
# Chain of Large T antigen (P03070 whole entry): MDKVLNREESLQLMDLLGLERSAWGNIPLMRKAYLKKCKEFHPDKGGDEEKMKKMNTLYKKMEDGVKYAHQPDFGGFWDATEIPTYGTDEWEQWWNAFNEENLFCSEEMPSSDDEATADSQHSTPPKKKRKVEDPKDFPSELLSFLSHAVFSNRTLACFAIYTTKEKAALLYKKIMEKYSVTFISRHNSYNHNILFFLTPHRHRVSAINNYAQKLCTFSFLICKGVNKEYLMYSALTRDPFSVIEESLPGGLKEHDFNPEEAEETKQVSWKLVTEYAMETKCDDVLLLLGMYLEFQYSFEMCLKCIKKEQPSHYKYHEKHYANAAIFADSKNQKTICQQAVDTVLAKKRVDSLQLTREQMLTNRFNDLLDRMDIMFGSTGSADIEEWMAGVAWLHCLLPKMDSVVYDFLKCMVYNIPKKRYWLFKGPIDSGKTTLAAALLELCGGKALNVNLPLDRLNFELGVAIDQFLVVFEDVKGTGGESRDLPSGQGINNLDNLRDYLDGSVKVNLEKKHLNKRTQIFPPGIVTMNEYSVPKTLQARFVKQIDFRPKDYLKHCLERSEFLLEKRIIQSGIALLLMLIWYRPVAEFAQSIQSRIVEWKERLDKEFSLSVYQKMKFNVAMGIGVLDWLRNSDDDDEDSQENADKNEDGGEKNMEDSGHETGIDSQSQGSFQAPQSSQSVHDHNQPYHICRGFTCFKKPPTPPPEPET
# [9] = NIH-3T3 fibroblast cytotoxicity, dose response, cytotoxicity control, cell-based, fluorescence, Alamar Blue, secondary assay (AID 2327); assay type: functional;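 also: NIH-3T3 mouse fibroblasts cultured with fluconazole at 8 µg/mL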
# cells [10] = assay type: functional, cell-based
# [11] = fluconazole-exposed Candida albicans growth modulators – fluorescence, retest, confirmation (AID 2467); assay type: functional, cell-based
# [12] = target: T4, Mannose-6-phosphate isomerase (Homo sapiens, UniProt P34949); assay: MPI enzyme activity inhibition – biochemical, fluorescence intensity, coupled assay, primary screen (AID 1209)
# T4 sequence (P34949 whole entry): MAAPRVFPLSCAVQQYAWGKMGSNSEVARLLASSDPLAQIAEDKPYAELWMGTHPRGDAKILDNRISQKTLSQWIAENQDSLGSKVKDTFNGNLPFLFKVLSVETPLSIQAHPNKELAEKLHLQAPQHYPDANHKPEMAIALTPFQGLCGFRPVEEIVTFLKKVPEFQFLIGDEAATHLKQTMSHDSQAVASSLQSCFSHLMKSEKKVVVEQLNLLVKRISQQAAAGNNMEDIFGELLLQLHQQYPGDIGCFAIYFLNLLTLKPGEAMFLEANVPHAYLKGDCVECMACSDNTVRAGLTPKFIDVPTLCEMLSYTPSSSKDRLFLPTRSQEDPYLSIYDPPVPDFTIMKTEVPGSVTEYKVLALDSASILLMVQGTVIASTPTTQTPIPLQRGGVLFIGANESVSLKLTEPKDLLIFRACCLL
# cells [13] = assay type: functional, cell-based; remark: listed apart in the source
# [14] = target: T5, Serine/threonine-protein phosphatase (Candida dubliniensis (strain CD36 / CBS 7987 / NCPF 3949 / NRRLY-17841) (Yeast), UniProt B9W6M3); assay: blockers of CaCl2-induced CDRE-lacZ signaling – S. cerevisiae, luminescence, secondary, dose response (AID 2388); assay type: functional, cell-based;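 also: yeast reporter cells carrying a calcineurin-responsive lacZ construct stimulated with calcium chloride; luminescent beta-galactosidase reporter signal in whole cells rather than isolated phosphatase activity; potency for inhibition where a drop in reporter signal means calcineurin blockade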
# T5 sequence (B9W6M3 whole entry): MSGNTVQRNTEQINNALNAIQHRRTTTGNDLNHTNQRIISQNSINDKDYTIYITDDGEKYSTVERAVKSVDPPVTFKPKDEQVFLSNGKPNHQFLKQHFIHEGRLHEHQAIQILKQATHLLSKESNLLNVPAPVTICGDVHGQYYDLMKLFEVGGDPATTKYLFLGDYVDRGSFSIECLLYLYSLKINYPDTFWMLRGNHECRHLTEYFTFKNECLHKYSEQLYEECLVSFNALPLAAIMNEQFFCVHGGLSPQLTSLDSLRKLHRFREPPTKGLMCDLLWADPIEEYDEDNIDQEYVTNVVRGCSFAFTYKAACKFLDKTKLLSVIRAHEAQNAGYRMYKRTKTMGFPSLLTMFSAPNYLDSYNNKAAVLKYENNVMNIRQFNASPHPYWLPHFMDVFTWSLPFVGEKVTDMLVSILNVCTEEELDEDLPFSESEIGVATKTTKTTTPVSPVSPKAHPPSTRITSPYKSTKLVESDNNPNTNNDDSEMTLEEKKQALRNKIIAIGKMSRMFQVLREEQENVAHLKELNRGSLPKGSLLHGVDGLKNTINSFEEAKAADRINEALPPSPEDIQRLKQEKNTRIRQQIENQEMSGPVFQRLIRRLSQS
# [15] = mitochondrial function rescue without frataxin homolog – Friedreich's ataxia, plus single-dose screen, dose response (AID 1465); assay type: functional;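 also: yeast depleted of Yfh1p frataxin homolog grown on glycerol needing respiration; WST-1 tetrazolium dye reduction as measure of cellular dehydrogenase metabolic activity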
# [16] = target: Induced myeloid leukemia cell differentiation protein Mcl-1 (Homo sapiens, UniProt Q07820); assay type: functional
# Chain of Induced myeloid leukemia cell differentiation protein Mcl-1 (Q07820 whole entry): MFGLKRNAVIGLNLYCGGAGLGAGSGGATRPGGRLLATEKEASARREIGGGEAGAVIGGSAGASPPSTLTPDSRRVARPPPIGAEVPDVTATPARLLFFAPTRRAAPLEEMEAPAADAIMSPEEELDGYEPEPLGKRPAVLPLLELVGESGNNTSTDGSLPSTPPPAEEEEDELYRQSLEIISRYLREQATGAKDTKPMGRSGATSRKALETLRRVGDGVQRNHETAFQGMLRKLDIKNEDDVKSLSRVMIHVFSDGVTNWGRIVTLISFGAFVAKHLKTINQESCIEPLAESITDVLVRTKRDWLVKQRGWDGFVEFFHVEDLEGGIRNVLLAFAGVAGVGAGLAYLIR
# [17] = target: T4, Mannose-6-phosphate isomerase; assay: MPI inhibition at elevated mannose 6-phosphate – biochemical, fluorescence intensity, high mannose 6-phosphate, primary screen (AID 1220)
# Coagulation factor XII = target: T6, Coagulation factor XII (Homo sapiens, UniProt P00748); assay type: functional;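 also: activated factor XIIa alpha cleaving a fluorogenic AMC peptide substrate; inhibitor potency from loss of enzyme activity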
# T6 sequence (P00748 whole entry): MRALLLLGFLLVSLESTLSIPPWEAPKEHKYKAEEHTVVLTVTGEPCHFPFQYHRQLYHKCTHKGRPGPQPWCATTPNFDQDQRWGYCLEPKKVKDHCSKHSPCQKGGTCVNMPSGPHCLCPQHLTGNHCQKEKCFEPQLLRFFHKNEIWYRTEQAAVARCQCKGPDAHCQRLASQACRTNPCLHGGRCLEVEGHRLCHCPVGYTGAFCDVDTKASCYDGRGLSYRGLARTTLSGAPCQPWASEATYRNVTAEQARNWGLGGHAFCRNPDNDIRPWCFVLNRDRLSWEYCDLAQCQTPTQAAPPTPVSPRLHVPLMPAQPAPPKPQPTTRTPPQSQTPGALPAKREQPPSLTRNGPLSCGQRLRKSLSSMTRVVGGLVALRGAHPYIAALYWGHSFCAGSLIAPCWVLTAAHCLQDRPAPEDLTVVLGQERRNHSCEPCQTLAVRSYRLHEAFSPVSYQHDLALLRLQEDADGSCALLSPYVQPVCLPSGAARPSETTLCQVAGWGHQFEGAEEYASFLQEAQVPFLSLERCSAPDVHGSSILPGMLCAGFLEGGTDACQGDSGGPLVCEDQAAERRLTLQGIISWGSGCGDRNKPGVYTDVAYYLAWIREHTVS
# [18] = target: ATP-dependent molecular chaperone HSP82 (Candida albicans (strain WO-1) (Yeast), UniProt C4YTQ8); assay: steroid-induced GRE reporter decrease in yeast – S. cerevisiae, luminescence, Hsp90 inhibitor project, dose response (AID 2400); assay type: functional, cell-based;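 also: beta-galactosidase luminescence from glucocorticoid response element reporter as proxy for Hsp90 function; inhibitor potency where signal loss means Hsp90 inhibition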
# Chain of ATP-dependent molecular chaperone HSP82 (C4YTQ8 whole entry): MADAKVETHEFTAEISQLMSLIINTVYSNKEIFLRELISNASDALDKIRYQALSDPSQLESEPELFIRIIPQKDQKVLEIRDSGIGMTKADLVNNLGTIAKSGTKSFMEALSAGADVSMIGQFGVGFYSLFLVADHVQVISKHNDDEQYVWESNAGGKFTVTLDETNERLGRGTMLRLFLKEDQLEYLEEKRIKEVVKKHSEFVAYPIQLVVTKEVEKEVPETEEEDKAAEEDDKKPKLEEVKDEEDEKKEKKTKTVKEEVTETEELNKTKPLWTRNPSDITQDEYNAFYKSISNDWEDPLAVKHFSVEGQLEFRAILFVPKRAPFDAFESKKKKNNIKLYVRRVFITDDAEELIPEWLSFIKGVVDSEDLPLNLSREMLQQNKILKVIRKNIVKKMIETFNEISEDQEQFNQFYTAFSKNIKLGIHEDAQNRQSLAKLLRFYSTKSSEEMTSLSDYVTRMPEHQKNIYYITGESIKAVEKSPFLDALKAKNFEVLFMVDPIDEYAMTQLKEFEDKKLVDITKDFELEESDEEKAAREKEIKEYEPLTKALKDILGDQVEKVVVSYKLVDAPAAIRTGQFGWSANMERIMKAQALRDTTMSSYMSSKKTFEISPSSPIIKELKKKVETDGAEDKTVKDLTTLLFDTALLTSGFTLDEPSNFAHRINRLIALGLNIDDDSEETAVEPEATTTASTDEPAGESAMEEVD
# Vero = assay: Vero cell viability after compound exposure – synthesized analogs, set II, cytotoxicity control for West Nile virus antiviral project, SAR follow-up (AID 2402); assay type: functional; details: Chlorocebus sabaeus
# [19] = A Cell Based Assay for the Identification of Probe candidate Compounds with Anti- Venezuelan Equine Encephalitis virus. [Related pubchem assays: 2409, 2419, 1621, 2238, 2405, 2024, 2065, 2402, 2414, 1635, 1650, 2244 ]; assay type: functional
compound,measurement,setting,value
CN(Cc1ccco1)C(=O)Cn1nc(-c2ccc(Cl)cc2)ccc1=O,CC50,HeLa,> 99 µM (not active)
Cc1ccnc(NC(=O)CCCOc2cc(=O)n(C)c3ccccc23)c1,EC50,[1],> 49.7 µM (not active)
same,EC50,Wee1-like protein kinase,7.87 µM (active)
same,IC50,[2],62.4 µM (not active)
same,IC50,Jurkat,6.22 µM (active)
same,IC50,[3],> 80 µM (inactive)
Cc1ccc(N2CCN(S(=O)(=O)N3CCCCC3)CC2)c(C)c1,EC50,Mucolipin-3 [4],1.43 µM (active)
same,EC50,Ion channel NompC [5],> 29.9 µM (not active)
same,EC50,Mucolipin-3 [6],2 µM (active)
same,EC50,Ion channel NompC [7],> 29.9 µM (inactive)
O=C(O)CC12CC3CC(C1)CC(n1ncc(NCc4ccc(F)cc4Cl)c(Cl)c1=O)(C3)C2,IC50,Leucine aminopeptidase,32.1 µM (active)
same,IC50,[8],> 55.7 µM (not active)
same,IC50,Insulin-degrading enzyme,18.1 µM (not active)
N/C(=N\N=C\c1ccc(O)cc1O)N[N+](=O)[O-],IC50,Aspartyl aminopeptidase,4.61 µM (active)
same,IC50,Procathepsin L,> 59.6 µM (not active)
same,IC50,Large T antigen,8.78 µM (active)
O=C(N/N=C/c1ccc(O)c(O)c1O)/C(=C/c1ccc([N+](=O)[O-])cc1)NC(=O)c1ccccc1,EC50,[9],> 160 µM (inactive)
same,EC50,cells [10],> 350 µM (not active)
same,EC50,[11],0.587 µM (active)
same,IC50,[12],> 50 µM (not active)
same,EC50,cells [13],> 350 µM (not active)
same,EC50,[14],> 180 µM (inactive)
same,EC50,[15],> 100 µM (active)
same,IC50,[16],19.3 µM (active)
same,IC50,[17],> 50 µM (not active)
same,IC50,Coagulation factor XII,> 50 µM (inactive)
same,EC50,[18],> 160 µM (inactive)
COc1ccc(Cn2nc(C)cc2OC(=O)c2ccccc2)cc1,CC50,Vero,> 200 µM (active)
same,IC50,[19],> 133 µM (active)
